# Laboratory results reported in patent US10668040B2, “Treatment of urea cycle disorders in neonates and infants” (Horizon Therapeutics, LLC, priority 2017, dated 2020).
# How the values were obtained:
# Assay type in all cases: in vivo, human
# [1] = system: pediatric patients with UCDs; test: HPN-100-012 switch-over study: 24-hour blood ammonia on HPN-100 vs NaPBA
# Description: HPN-100-012 was an open-label, fixed sequence, switch-over study of the safety, PK and efficacy of HPN-100 compared to NaPBA in patients with UCDs, with a 12-month safety extension part. […] After review of all the safety data by the DSMB, 8 additional subjects were enrolled in the study after the switch-over phase was completed.
# [2] = system: pediatric UCD patients; test: Pooled ammonia analyses from short term studies
# Description: Pooled ammonia analyses from short term studies were also conducted.
# [3] = Pharmacokinetics of HPN-100 and NaPBA, study HPN-100-005; details: HPN-100-005 (N = 11)
# Description: (§1) The pharmacokinetics of the short term studies can be summarized as follows. Mean exposure levels of HPN-100 metabolites PBA, PAA, and PAGN after doses of HPN-100 and NaPBA with meals (TID) in pediatric (29 days to 17 years of age) UCD patients in HPN-100-005 and HPN-100-012 studies are summarized below. The mean exposure to PBA, the parent metabolite, and mean exposure to PAGN, the terminal metabolite, show no systematic variation across age groups, while PAA exposure tended to decrease with increasing age, a finding consistent with those from population PK modeling which indicate that the rate of clearance/metabolism of PAA varies directly with body size. While systemic metabolite exposure, assessed as peak plasma concentration (Cmax) or AUC, is generally similar for HPN-100 and NaPBA, the minimum concentration (Cmin-ss) was higher—and/or percent-fluctuation less—for plasma PAGN, a finding consistent with slower gastrointestinal absorption of PBA when administered orally as HPN-100.
# [4] = Pharmacokinetics of HPN-100 and NaPBA, study HPN-100-012; details: HPN-100-012 (N = 15)
# Description: as §1
smiles,measurement,setting,value
"O=C([O-])CCCc1ccccc1.[Na+] [NaPBA, sodium phenylbutyrate]",Mean blood ammonia,"[1]; 12-hour time point, HPN-100 Day 10, NaPBA Day 1",41.03 µmol/L
same,Mean blood ammonia,"[1]; 24-hour time point, NaPBA Day 1",34.66 µmol/L
same,Mean blood ammonia levels following an overnight fast,[1]; pre-dose and 24 hours post dose,normal
same,abnormal ammonia values,[2],35%
same,Plasma PAA % Fluctuation,[3]; mean (CV %),3931 (85.1) %
same,Plasma PAA AUC0-24,[3]; mean (CV %),773 (73.3) μg · h/mL
same,Plasma PAA CLss/F,[3]; mean (CV %),34391 (162.5) mL/min
same,Plasma PAA Cmax-ss,[3]; mean (CV %),75.1 (64.4) μg/mL
same,Plasma PAA Cmin-ss,[3]; mean (CV %),0.674 (130.5) μg/mL
same,Plasma PAGN % Fluctuation,[3]; mean (CV %),1917 (54.8) %
same,Plasma PAGN AUC0-24,[3]; mean (CV %),1015 (44.7) μg · h/mL
same,Plasma PAGN CLss/F,[3]; mean (CV %),19739 (44.3) mL/min
same,Plasma PAGN Cmax-ss,[3]; mean (CV %),74.8 (37.3) μg/mL
same,Plasma PAGN Cmin-ss,[3]; mean (CV %),4.6 (66.4) μg/mL
same,Plasma PBA % Fluctuation,[3]; mean (CV %),1979 (123.7) %
same,Plasma PBA AUC0-24,[3]; mean (CV %),236 (105.2) μg · h/mL
same,Plasma PBA CLss/F,[3]; mean (CV %),145463 (123.4) mL/min
same,Plasma PBA Cmax-ss,[3]; mean (CV %),37.4 (101.6) μg/mL
same,Plasma PBA Cmin-ss,[3]; mean (CV %),0.37 (171.3) μg/mL
same,U-PAGN Ae,[3]; mean (CV %),12512426 (51.3) μg
same,U-PAGN Ae0-12,[3]; mean (CV %),7098020 (47.5) μg
same,U-PAGN Ae12-24,[3]; mean (CV %),5414406 (71.9) μg
same,U-PAGN Fe0-12,[3]; mean (CV %),39.6 (30.0) %
same,U-PAGN Fe12-24,[3]; mean (CV %),29.3 (52.8) %
same,U-PAGN Fe % dose,[3]; mean (CV %),69.0 (23.9) %
same,Plasma PAA Tmax-ss,[3]; median,12.00 h
same,Plasma PAGN Tmax-ss,[3]; median,12.00 h
same,Plasma PBA Tmax-ss,[3]; median,12.00 h
same,Plasma PAA % Fluctuation,[4]; mean (CV %),1289 (102.8) %
same,Plasma PAA AUC0-24,[4]; mean (CV %),1458 (211.3) μg · h/mL
same,Plasma PAA CLss/F,[4]; mean (CV %),94249 (243.7) mL/min
same,Plasma PAA Cmax-ss,[4]; mean (CV %),98.0 (152.1) μg/mL
same,Plasma PAA Cmin-ss,[4]; mean (CV %),49.2 (287.2) μg/mL
same,Plasma PAGN % Fluctuation,[4]; mean (CV %),1459 (74.1) %
same,Plasma PAGN AUC0-24,[4]; mean (CV %),946 (75.5) μg · h/mL
same,Plasma PAGN CLss/F,[4]; mean (CV %),14360 (93.0) mL/min
same,Plasma PAGN Cmax-ss,[4]; mean (CV %),74.4 (61.3) μg/mL
same,Plasma PAGN Cmin-ss,[4]; mean (CV %),17.7 (159.6) μg/mL
same,Plasma PBA % Fluctuation,[4]; mean (CV %),5102 (75.9) %
same,Plasma PBA AUC0-24,[4]; mean (CV %),483 (146.0) μg · h/mL
same,Plasma PBA CLss/F,[4]; mean (CV %),112093 (136.4) mL/min
same,Plasma PBA Cmax-ss,[4]; mean (CV %),60.4 (128.3) μg/mL
same,Plasma PBA Cmin-ss,[4]; mean (CV %),0.993 (227.3) μg/mL
same,Plasma PAA Tmax-ss,[4]; median,8.00 h
same,Plasma PAGN Tmax-ss,[4]; median,8.00 h
same,Plasma PBA Tmax-ss,[4]; median,8.30 h
